Experiments:
MRC5 [1] = test: Detection test with compound of formula V, normal cells MRC5 (Table II); assay type: cell-based; conditions: Homo sapiens, read-out: inhibition of the growth of the cells
Procedure: (§1) Petri dishes having a diameter of 10 cm are seeded with 10^6 cells to be studied. At the end of 4 hours after seeding, the compound of formula V (with R'=R"=CH3, R'"=H) is added in the form of an aqueous solution containing 0.14 M NaCl, the solution having a volume of 100 microliters. The effect of the compound of formula V is studied at various concentrations.

NRK [2] = test: Detection test with compound of formula V, benign transformed cells NRK (Table II); assay type: cell-based; conditions: Rattus norvegicus, read-out: inhibition of the growth of the cells
Procedure: as §1

NRK B77 [3] = test: Detection test with compound of formula V, malignant cells NRK B77 (Table II); assay type: cell-based; conditions: Rattus norvegicus, read-out: inhibition of the growth of the cells
Procedure: as §1

HeLa [4] = test: Detection test with compound of formula V, malignant cells HeLa (Table II); assay type: cell-based; conditions: Homo sapiens, read-out: inhibition of the growth of the cells
Procedure: as §1

CEC = test: Detection test with compound of formula V, normal cells CEC (Table II); assay type: cell-based, chicken; conditions: Gallus gallus, read-out: inhibition of the growth of the cells
Procedure: as §1

NRK [5] = test: Growth inhibition, established line NRK (Table 1); assay type: cell-based, rat; conditions: 4 days
Procedure: (§2) The tests are carried out in the following manner:
(§3) A culture medium, constituted by the Eagle minimum medium to which has been added 10% of calf serum, is seed with 2×10^5 cells being studied.
(§4) After 4 days of culture, the inhibition relative to non-treated control cultures is measured.

NRK B77 [6] = test: Growth inhibition, transformed cells NRK B77 (Table 1); assay type: cell-based; conditions: Rattus norvegicus, 96 h, 4 days, read-out: Cellular growth, percentage of inhibition
Procedure: as §2, §3, §4

MRC5 [7] = test: Growth inhibition, normal diploid cells MRC5 (Table 1); assay type: cell-based; conditions: Homo sapiens, 96 h, 4 days, read-out: Cellular growth, percentage of inhibition
Procedure: as §2, §3, §4

HeLa [8] = test: Growth inhibition, transformed cells HeLa (Table 1); assay type: cell-based; conditions: Homo sapiens, 96 h, 4 days, read-out: Cellular growth, percentage of inhibition
Procedure: as §2, §3, §4

293 = test: Growth inhibition, transformed cells 293 (Table 1); assay type: cell-based, human; conditions: 4 days
Procedure: as §2, §3, §4

HEp2 = test: Growth inhibition, transformed cells HEp2 (Table 1); assay type: cell-based, human; conditions: 4 days
Procedure: as §2, §3, §4

[9] = biological target: T1, RALD (aldehyde reductase) (Rattus norvegicus, UniProt P51635); test: In vitro test: inhibition of RALD in cellular homogenates of NRK B77 cells; assay type: biochemical
T1 construct: NADPH, malonic dialdehyde substrate, pH 6
T1 sequence (P51635 1-325): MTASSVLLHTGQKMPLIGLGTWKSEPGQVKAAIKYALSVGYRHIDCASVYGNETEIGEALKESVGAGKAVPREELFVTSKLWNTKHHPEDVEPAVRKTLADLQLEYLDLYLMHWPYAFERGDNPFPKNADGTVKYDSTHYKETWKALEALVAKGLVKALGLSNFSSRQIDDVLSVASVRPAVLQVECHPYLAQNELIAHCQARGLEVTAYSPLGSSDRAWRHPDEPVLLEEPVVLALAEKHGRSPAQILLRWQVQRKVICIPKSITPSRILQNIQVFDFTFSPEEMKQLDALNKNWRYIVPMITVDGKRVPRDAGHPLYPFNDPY
Procedure: Cellular homogenates of NRK B77 cells which contain about 500 micrograms of the enzyme are prepared and incubated with the compound of Example 1 at doses of 0.2 mM, 0.8 mM and 1 mM. The incubation lasts for 15, 30 or 60 minutes.
After incubation, an aliquot is added to the substrate which is 2 mM malonic dialdehyde dissolved in a phosphate buffer of pH 6 containing 0.35 mM of NADPH (co-factor of the enzyme).
The optical density is measured every minute, for 5 minutes, at 340 nm.
The transformation of NADPH into […] causes a linear reduction of the optical density. The inhibiting effect is evaluated by the difference between the variation of the optical density in the controls (without inhibitor) and the variation of the optical density with the inhibitor.

Toxicity on mice = assay type: in vivo; conditions: intraperitoneal
Procedure: The study of the toxicity has been carried out on mice. The product of Example 1 is administered intraperitoneally at a dosage of 3 g/kg body weight daily for 8 days.

`CC(C)(N)C#CC=O` showed an inhibition at 5 µM (MRC5 [1]; MRC5, 0.5 × 10^-5 M) of 0%, an inhibition at 100 µM (MRC5 [1]; MRC5, 1 × 10^-4 M) of 0% and an inhibition at 200 µM (MRC5 [1]; MRC5, 2 × 10^-4 M) of 0%. For the same compound, the inhibition at 400 µM (MRC5 [1]; MRC5, 4 × 10^-4 M) was 0%, the inhibition at 600 µM (MRC5 [1]; MRC5, 6 × 10^-4 M) was 18% and the inhibition at 5 µM (NRK [2]; 0.5 × 10^-5 M) was 0%. The inhibition at 100 µM (NRK [2]; 1 × 10^-4 M) was 0%, the inhibition at 200 µM (NRK [2]; 2 × 10^-4 M) was 0% and the inhibition at 400 µM (NRK [2]; 4 × 10^-4 M) was 0%. It also gave an inhibition at 600 µM (NRK [2]; 6 × 10^-4 M) of 0%, an inhibition at 5 µM (NRK B77 [3]; NRK B77, 0.5 × 10^-5 M) of 0% and an inhibition at 100 µM (NRK B77 [3]; NRK B77, 1 × 10^-4 M) of 16%. The inhibition at 200 µM (NRK B77 [3]; NRK B77, 2 × 10^-4 M) was 31%, the inhibition at 400 µM (NRK B77 [3]; NRK B77, 4 × 10^-4 M) was 57% and the inhibition at 600 µM (NRK B77 [3]; NRK B77, 6 × 10^-4 M) was 79%. The inhibition at 5 µM (HeLa [4]; 0.5 × 10^-5 M) was 0%, the inhibition at 100 µM (HeLa [4]; 1 × 10^-4 M) was 18% and the inhibition at 200 µM (HeLa [4]; 2 × 10^-4 M) was 36%. The inhibition at 400 µM (HeLa [4]; 4 × 10^-4 M) was 78%, the inhibition at 600 µM (HeLa [4]; 6 × 10^-4 M) was 91% and the inhibition at 5 µM (CEC; 0.5 × 10^-5 M) was 0%. The inhibition at 100 µM (CEC; 1 × 10^-4 M) was 0%, the inhibition at 200 µM (CEC; 2 × 10^-4 M) was 0% and the inhibition at 400 µM (CEC; 4 × 10^-4 M) was 10%. The inhibition at 600 µM (CEC; 6 × 10^-4 M) was 12%.

With `CC(C)(N)C#CC1(C)CO1` (stereo not shown) [Example 1, 5,6-epoxy-2,5-dimethyl-3-hexyne-2-amine] the “Cellular growth, percentage of inhibition” value (NRK [5]; 6 × 10^-4 M) was “Dead”, the inhibition at 200 µM (NRK [5]; Rattus norvegicus, 96 h, 2 × 10^-4 M, read-out: Cellular growth, percentage of inhibition) was 30% and the inhibition at 400 µM (NRK [5]; Rattus norvegicus, 96 h, 4 × 10^-4 M, read-out: Cellular growth, percentage of inhibition) was 60%. For the same compound, the inhibition at 100 µM (NRK B77 [6]; NRK B77, 1 × 10^-4 M) was 0%, the inhibition at 200 µM (NRK B77 [6]; NRK B77, 2 × 10^-4 M) was 0% and the inhibition at 400 µM (NRK B77 [6]; NRK B77, 4 × 10^-4 M) was 50%. The inhibition at 50 µM (NRK B77 [6]; NRK B77, 5 × 10^-5 M) was 0%, the inhibition at 600 µM (NRK B77 [6]; NRK B77, 6 × 10^-4 M) was 60% and the inhibition at 100 µM (MRC5 [7]; MRC5, 1 × 10^-4 M) was 0%. For the same compound, the inhibition at 200 µM (MRC5 [7]; MRC5, 2 × 10^-4 M) was 0%, the inhibition at 400 µM (MRC5 [7]; MRC5, 4 × 10^-4 M) was 0% and the inhibition at 50 µM (MRC5 [7]; MRC5, 5 × 10^-5 M) was 0%. The inhibition at 600 µM (MRC5 [7]; MRC5, 6 × 10^-4 M) was 0%, the inhibition at 100 µM (HeLa [8]; 1 × 10^-4 M) was 0% and the inhibition at 200 µM (HeLa [8]; 2 × 10^-4 M) was 20%. It also gave an inhibition at 400 µM (HeLa [8]; 4 × 10^-4 M) of 80%, an inhibition at 50 µM (HeLa [8]; 5 × 10^-5 M) of 0% and an inhibition at 600 µM (HeLa [8]; 6 × 10^-4 M) of 90%. The “Cellular growth, percentage of inhibition” value (293; 293, 1 × 10^-4 M) was 50%, the “Cellular growth, percentage of inhibition” value (293; 293, 2 × 10^-4 M) was 90% and the “Cellular growth, percentage of inhibition” value (293; 293, 4 × 10^-4 M) was “Dead”. For the same compound, the “Cellular growth, percentage of inhibition” value (293; 293, 5 × 10^-5 M) was 20%, the “Cellular growth, percentage of inhibition” value (293; 293, 6 × 10^-4 M) was “Dead” and the “Cellular growth, percentage of inhibition” value (HEp2; HEp2, 6 × 10^-4 M) was “Dead”. It also gave an inhibition at 100 µM (HEp2; Homo sapiens, HEp-2, 96 h, HEp2, 1 × 10^-4 M, read-out: Cellular growth, percentage of inhibition) of 0%, an inhibition at 200 µM (HEp2; Homo sapiens, HEp-2, 96 h, HEp2, 2 × 10^-4 M, read-out: Cellular growth, percentage of inhibition) of 20% and an inhibition at 400 µM (HEp2; Homo sapiens, HEp-2, 96 h, HEp2, 4 × 10^-4 M, read-out: Cellular growth, percentage of inhibition) of 80%. The inhibition at 50 µM (HEp2; Homo sapiens, HEp-2, 96 h, HEp2, 5 × 10^-5 M, read-out: Cellular growth, percentage of inhibition) was 0%, the “inhibition of the RALD activity” value ([9]; 1 mM, 30 minutes) was “total inhibition” and the remaining activity at 800 µM ([9]; 0.5 h, 0.8 mM, 30 minutes) was ~10%. For the same compound, the remaining activity at 200 µM ([9]; 1 h, 0.2 mM, 60 minutes) was < 25%, the apparent toxicity (Toxicity on mice; 3 g/kg daily for 8 days) was “No apparent toxicity” and the LD50 (Toxicity on mice; mouse, in vivo, ip, read-out: DL50 (the source's name)) was > 3000 mg/kg.

From patent publication US4767872A, “Epoxide derivatives” (Centre National de la Recherche Scientifique (CNRS), priority 1985, dated 1988)
